Laboratory results taken from patent US20240238417A1, “METHODS OF PRODUCING TUMOR VACCINES AND USES THEREOF” (priority 2021, published 2024).

Tests used:
CT26 challenge tumor = test: Challenge assay in CT26 tumor-bearing mice; type: in vivo
Description: Challenge tumor inoculation: Up to 21 days after gas treatment was applied to the primary tumor, the appropriate cancer cell suspensions were prepared as described herein and inoculation of cells was repeated on the contralateral flank of the mice. Administration was performed as soon as possible following cell suspension preparation and after manual shaking prior to withdrawal of the cell suspension.
The percentage of challenge tumor take was monitored 2-3 times a week by taking a look at the inoculated site and touching this area to look for small tumors that are not yet visible. Naïve mice inoculated with tumor cells for the first time served as an internal control.
In another challenge assay, the tumors of CT26 tumor-bearing mice were treated with 25,000-200,000 ppm gNO delivered into the tumors using 23G hypodermic needles, as depicted in FIG. 17A.
CT26 tumor-bearing mice treated with 25,000 ppm for 30 minutes, were re-inoculated with CT26 tumor cells 12 days after treatment (n=1) and 14 days after treatment (n=1). The percentage of visible challenge tumor take was assessed 2-3 times a week for more than 50 days.
An additional group of CT26 tumor-bearing mice were treated with 50,000 ppm for 10 minutes, and were re-inoculated with CT26 tumor cells 7 days (n=1) or 9 days (n=1) after treatment. The percentage of challenge tumor take was assessed 2-3 times a week for 12 days.
An additional group of CT26 tumor-bearing mice were treated with 200,000 ppm for 2-35 seconds, were re-inoculated with CT26 tumor cells 14 days (n=2) post treatment. The percentage of visible challenge tumor take was assessed 2-3 times a week for more than 50 days.
Naïve mice, inoculated with CT26 for the first time, served as the control group.
The effect of high-pressure gas treatment on stimulation of anti-tumor immune response was tested in a challenge assay as depicted in FIG. 37A.
Balb/c mice were inoculated subcutaneously (s.c) with the mouse colon cancer cell line, CT26. […]

4T1 cells = test: Third inoculation with 4T1 breast cancer cells in a gNO-treated CT26 immunized mouse; type: in vivo; conditions: mouse treated with 25,000 ppm NO twice 15 minutes; third inoculation 30 days post the second
Description: Balb/c mouse was inoculated with 500,000 CT26 cells to the right flank. CT26 tumor was treated with 25,000 ppm NO for 15 minutes at a flow rate of 0.25 LPM. Seven days post gas treatment, this mouse was treated once again using the same protocol. Twelve days post the first NO treatment, this mouse was re-inoculated with 500,000 CT26 cells to the left flank. A third inoculation of cancer cells was performed 30 days post the second cell inoculation, using mouse breast cancer cells, was performed as well and the growth of a third inoculation of breast cancer cells, 4T1 cells. Forty-four days post challenge assay start (second inoculation), this mouse was sacrificed, and his spleen was harvested and preserved in RPMI-based media at 4° c. until processing of it. The spleen was processed into a sterile 35 mm culture dish containing 5 ml of RPMI-based media. Any extra connective tissues or fat was trimmed from the spleen. The flat end of a plunger was used to mince the spleen by crushing the spleen to release the splenocytes. A 70 μm strainer was primed by passing 1 ml of PBS through it and placed on a sterile 50 mL conical tube. The pellet was collected and transferred through the strainer via a 5 mL serological pipette. The strainer was washed with 3 mL of RPMI-based media. Tube will be centrifuged at 300×g for 10 minutes. […]

CT26 tumor = test: Combined gNO and surgery, CT26 tumor recurrence; type: in vivo, mice; conditions: then excision
Description: The following in vivo experimental procedures were carried out in accordance with the protocol approved by the Ethics Committee on the Use and Care of Animals. Institutional Animal Care and Use Committee (IACUC): IL-20-3-149.
CT26 tumor-bearing mice were treated with 20,000 ppm and 50,000 ppm gNO intra-tumorally for 5 minutes. Up to fourteen days post gNO treatment, all tumors were excised, and the recurrence rate was monitored for 89 days post-excision. Tumor recurrence was detected 17 days post treatment.

LLC1 cells = test: Annexin V-Propidium Iodide apoptosis-necrosis assay of LLC1 cells; type: cell-based; conditions: 20,000 ppm or 50,000 ppm gNO for 3 minutes, overnight incubation
Description: Immediately after gas exposure, cell culture medium was added, and the cells were incubated at a 37° C. and 5% CO2 incubator over-night. To test cell viability, XTT assay and Annexin V-Propidium Iodide assays were performed, according to known protocols.
In an additional set of experiments, the plates were exposed to the gas (at 20,000 ppm or 50,000 ppm) by filling the chamber with gNO for 3 minutes. After exposure, the plates were placed in a 5% CO2, 37° C. incubator for an overnight incubation and the viability of the cells was tested via Annexin V—Propidium Iodide apoptosis-necrosis assay.

[N]=O [gNO, nitric oxide]
secondary CT26 tumor cell inoculation at end of follow-up (CT26 challenge tumor; 25,000 ppm 30 minutes, 50,000 ppm 10 minutes or 200,000 ppm 2-35 seconds, naive mice 100% tumor take): all NO-treated mice rejected a secondary CT26 tumor cell inoculation | tumor-free mice, no primary and challenge tumors (CT26 challenge tumor; 25,000 ppm gNO, 0.25 LPM, two 15-minute cycles, outlet pressure 3.5-5.17 bars): 50% | development of a secondary (challenge) CT26 tumor (CT26 challenge tumor; 25,000 ppm gNO, 0.25 LPM, two 15-minute cycles, outlet pressure 3.5-5.17 bars, re-inoculated days 12-14): have not developed a secondary tumor | growth of a third inoculation of breast cancer cells (4T1) (4T1 cells): inhibited | tumor recurrence (CT26 tumor; 20,000 ppm gNO intra-tumorally 5 minutes, 17 days post-surgery): about 18% | tumor recurrence (CT26 tumor; 50,000 ppm gNO intra-tumorally 5 minutes, 17 days post surgery): 0% | LLC1 cells at late apoptosis (LLC1 cells): 80%-90%
